Reference: article PMC10703812, “Understanding the molecular mechanisms of odorant binding and activation of the human OR52 family” (Nature Communications, 2023)
“And” between values parts separate entries of the source, which are not always exact repeats. Identical values can stand only once.

How the values were obtained:
Format in all cases: cell-based, human
OR52cs-bRIL-ICL3 = test: cAMP signaling assay, bRIL chimera; set-up: cAMP response: scale not given here; conditions: for cAMP response: Fig.S11a source data
Text: For the structural study of apo state OR52cs, the chimeric construct of full-length OR52cs (1–313)[23] was designed to insert bRIL between A226 and L227 with a linker sequence derived from adenosine receptor A2a, as previously described. For purification of active state OR52cs, full-length OR52cs (1–313) was used. Each construct was subcloned into the pFastBac HT B vector with a Lucy signal sequence ([…])[17] and FLAG peptide at the N-terminus. Each construct also included an eGFP with 10xHis-tag, which was fused to the C-terminus of OR52cs with a HRV 3C protease cleavage sequence.
(§1) Hana3A cells were seeded on 96-well white microplates and transfected with OR52cs or the corresponding mutants and cAMP sensor (Promega). The medium was exchanged with CO2-independent medium (Gibco) supplemented with 0.375 mg ml^−1 D-luciferin (Nanolight) 48 h after infection, and cells were incubated in the dark at 20 °C for 2 h. Basal luminescence was detected using a Tristar 2 LB 942 multimode reader (Berthold) until it reached a plateau. Subsequently, various concentrations of odorants and forskolin (Sigma-Aldrich) were added to each well, and luminescence was measured again. Data were analyzed and plotted using GraphPad Prism 9.4.1.

OR52cs F261A = test: cAMP signaling assay, mutant; set-up: cAMP response: scale not given here; conditions: for cAMP response: Fig.3d source data, single experiments
Protocol: (§2) For cAMP assay, CRE luciferase assay, and surface ELISA, the full-length OR52cs construct was cloned into the pcDNA3.1 vector. The Lucy signal sequence and FLAG peptide sequence were added to the N-terminus. Mutant constructs were generated by site-directed mutagenesis. For BRET assay, eYFP was added at the C-terminus of OR52cs with a GGGGS linker. Rluc was added to Gα for resonance partner (after L99 for Gαs, and I100 for Gαolf, respectively, with GGGGS linker back and forth).
as §1

OR52cs Y254A = test: cAMP signaling assay, mutant; set-up: cAMP response: scale not given here; conditions: for cAMP response: Fig.S13b source data, single experiments
Protocol: as §2, §1

OR52cs I208A = test: cAMP signaling assay, mutant; set-up: cAMP response: scale not given here; conditions: for cAMP response: Fig.3d source data, single experiments
Protocol: as §2, §1

OR52cs T110A = test: cAMP signaling assay, mutant; set-up: cAMP response: scale not given here; conditions: for cAMP response: Fig.3d source data, single experiments
Protocol: as §2, §1

OR52cs H275A = test: cAMP signaling assay, mutant; set-up: cAMP response: scale not given here; conditions: for cAMP response: Fig.S13b source data, single experiments
Protocol: as §2, §1

OR52cs F161A = test: cAMP signaling assay, mutant; set-up: cAMP response: scale not given here; conditions: for cAMP response: Fig.3d source data, single experiments
Protocol: as §2, §1

OR52cs F253A = test: cAMP signaling assay, mutant; set-up: cAMP response: scale not given here; conditions: for cAMP response: Fig.S13b source data, single experiments
Protocol: as §2, §1

OR52cs S114A = test: cAMP signaling assay, mutant; set-up: cAMP response: scale not given here; conditions: for cAMP response: Fig.S13b source data, single experiments
Protocol: as §2, §1

OR52cs H264A = test: cAMP signaling assay, mutant; set-up: cAMP response: scale not given here; conditions: for cAMP response: Fig.S13b source data, single experiments
Protocol: as §2, §1

OR52cs ΔN(1–18) = test: cAMP signaling assay, N-tail deletion mutant; conditions: Fig. 2c
Protocol: as §2, §1

OR52cs / Gαs = test: BRET assay, G protein recruitment to OR52cs; conditions: 500 µM OCA; Gαs-Rluc; Fig.S2a, single experiments; listed as OCA
Protocol: as §2
(§3) All signaling assays were performed in Hana3A cells, which were kindly provided by Dr. Matsunami. Cells were seeded on 6-well clear plate (SPL) and co-transfected with OR52cs-eYFP, Gαs-Rluc or Gαolf-Rluc, Gβ1 and Gγ2 at a 5:1:1:1 ratio. 48 h after infection, cells were collected and resuspended with PBS. 500 μM of OCA was treated to the cells, and cells were transferred to 96-well white microplate (SPL). Coelenterazine H (Nanolight) was added to each well at a final concentration of 10 μM and luminescence was measured using a Tristar 2 LB 942 multimode reader (Berthold). Data were analyzed using GraphPad Prism 9.4.1.

OR52cs / Gαolf = test: BRET assay, G protein recruitment to OR52cs; conditions: 500 µM OCA; Gαolf-Rluc; Fig.S2a, single experiments; listed as OCA
Protocol: as §2, §3

`CCCCCCCC(=O)O` [Octanoate, octanoic acid] was tested, and the “OCA-induced activity (in words)” value (OR52cs-bRIL-ICL3; Supplementary Fig. 11) was “neither basal activity nor OCA-induced activity”, the cAMP response (OR52cs-bRIL-ICL3; odorant 9.18274e-8 M, single experiments) was 2.864 and 3.4309 and 3.889 and 3.292 and the cAMP response (OR52cs-bRIL-ICL3; odorant 9.18274e-7 M, single experiments) was 3.793 and 3.523 and 3.621 and 3.789. For the same compound, the cAMP response (OR52cs-bRIL-ICL3; odorant 9.18274e-6 M, single experiments) was 3.871 and 2.869 and 3.568 and 3.2862, the cAMP response (OR52cs-bRIL-ICL3; odorant 3.0303e-5 M, single experiments) was 3.732 and 3.68 and 3.466 and 3.76 and the cAMP response (OR52cs-bRIL-ICL3; odorant 0.0001 M, single experiments) was 4.827 and 3.799 and 4.225 and 4.217. The “cAMP response (raw signal) upon OCA treatment” value (OR52cs-bRIL-ICL3; odorant 0.001 M (1 mM OCA), Fig.S11a left, single experiments, listed as Octanotae) was 8475 and 9202 and 7849 and 10195, the cAMP response (OR52cs-bRIL-ICL3; odorant 0.001 M, single experiments) was 5.645 and 5.075 and 5.021 and 7.052 and the “downstream signaling (in words)” value (OR52cs F261A; Fig. 3d) was “significantly reduced downstream signaling”. For the same compound, the “X-fold over OR52cs (relative fold of EC50)” value (OR52cs F261A; Supplementary Table 3) was 64.0, the EC50 (OR52cs F261A; Supplementary Table 3, N=3) was 506 µM and the “pEC50 ± SEM” value (OR52cs F261A; Supplementary Table 3, N=3) was 3.326 ± 1.547. The cAMP response (OR52cs F261A; odorant 9.18274e-7 M) was 3.451 and 3.066 and 1.971, the cAMP response (OR52cs F261A; odorant 3.0303e-5 M) was 5.756 and 6.219 and 11.0254 and the cAMP response (OR52cs F261A; odorant 0.001 M) was 66.0962 and 58.1347 and 77.5545. For the same compound, the EC50 (OR52cs Y254A; Supplementary Fig. 13b) was 0.6 µM, the cAMP response (OR52cs Y254A; odorant 9.18274e-8 M) was 3.215 and 2.4896 and 3.9476 and the cAMP response (OR52cs Y254A; odorant 9.18274e-7 M) was 17.867 and 17.7491 and 20.6138. The cAMP response (OR52cs Y254A; odorant 9.18274e-6 M) was 27.7636 and 29.4886 and 28.529, the cAMP response (OR52cs Y254A; odorant 3.0303e-5 M) was 29.9943 and 28.2884 and 30.9686 and the cAMP response (OR52cs Y254A; odorant 0.0001 M) was 31.1114 and 30.9026 and 31.9237. The cAMP response (OR52cs Y254A; odorant 0.001 M) was 30.3248 and 30.6953 and 33.5912, the “X-fold over OR52cs (relative fold of EC50)” value (OR52cs I208A; Supplementary Table 3) was 0.65 and the EC50 (OR52cs I208A; Supplementary Table 3, N=3) was 5.1 µM. The “pEC50 ± SEM” value (OR52cs I208A; Supplementary Table 3, N=3) was 5.321 ± 0.119, the cAMP response (OR52cs I208A; odorant 9.18274e-7 M) was 9.649 and 7.873 and 7.984 and the cAMP response (OR52cs I208A; odorant 9.18274e-6 M) was 74.2921 and 59.9569. For the same compound, the cAMP response (OR52cs I208A; odorant 3.0303e-5 M) was 118.216 and 87.9298 and 99.5696, the cAMP response (OR52cs I208A; odorant 0.0001 M) was 123.062 and 85.14 and 99.773 and the cAMP response (OR52cs I208A; odorant 0.001 M) was 115.233 and 86.0111 and 85.4934. For the same compound, the “X-fold over OR52cs (relative fold of EC50)” value (OR52cs T110A; Supplementary Table 3) was 2.9, the EC50 (OR52cs T110A; Supplementary Table 3, N=3) was 22.7 µM and the “pEC50 ± SEM” value (OR52cs T110A; Supplementary Table 3, N=3) was 4.293 ± 0.098. The cAMP response (OR52cs T110A; odorant 3.0303e-5 M) was 45.9718 and 31.6697 and 55.6315, the cAMP response (OR52cs T110A; odorant 0.0001 M) was 55.3228 and 56.0506 and 78.0827 and the cAMP response (OR52cs T110A; odorant 0.001 M) was 63.5049 and 61.123 and 88.9664. For the same compound, the EC50 (OR52cs H275A; Supplementary Fig. 13b) was 67 µM, the cAMP response (OR52cs H275A; odorant 9.18274e-7 M) was 1.163 and 1.2177 and 0.8093 and the cAMP response (OR52cs H275A; odorant 9.18274e-6 M) was 12.1088 and 9.48 and 7.718. The cAMP response (OR52cs H275A; odorant 3.0303e-5 M) was 33.8567 and 32.1825 and 24.2227, the cAMP response (OR52cs H275A; odorant 0.0001 M) was 62.7151 and 60.5238 and 53.5809 and the cAMP response (OR52cs H275A; odorant 0.001 M) was 101.549 and 94.9309 and 77.7131. The “X-fold over OR52cs (relative fold of EC50)” value (OR52cs F161A; Supplementary Table 3) was 5.3, the EC50 (OR52cs F161A; Supplementary Table 3, N=3) was 42 µM and the “pEC50 ± SEM” value (OR52cs F161A; Supplementary Table 3, N=3) was 4.214 ± 0.075. For the same compound, the cAMP response (OR52cs F161A; odorant 3.0303e-5 M) was 40.1826 and 27.0053 and 36.2901, the cAMP response (OR52cs F161A; odorant 0.0001 M) was 77.0461 and 49.0263 and 69.6028 and the cAMP response (OR52cs F161A; odorant 0.001 M) was 102.629 and 63.8026 and 79.1192. For the same compound, the EC50 (OR52cs F253A; Supplementary Fig. 13b) was 219 µM, the cAMP response (OR52cs F253A; odorant 9.18274e-8 M) was 0.6755 and 1.259 and 1.115 and the cAMP response (OR52cs F253A; odorant 9.18274e-7 M) was 1.327 and 1.6492 and 1.457. For the same compound, the cAMP response (OR52cs F253A; odorant 9.18274e-6 M) was 3.718 and 4.351 and 3.597, the cAMP response (OR52cs F253A; odorant 3.0303e-5 M) was 11.1366 and 13.9484 and 11.2845 and the cAMP response (OR52cs F253A; odorant 0.0001 M) was 38.3735 and 42.0381 and 35.9654. For the same compound, the cAMP response (OR52cs F253A; odorant 0.001 M) was 106.487 and 105.397 and 81.8862, the EC50 (OR52cs S114A; Supplementary Fig. 13b) was 54 µM and the cAMP response (OR52cs S114A; odorant 9.18274e-7 M) was 0.7937 and 0.8194 and 1.08. For the same compound, the cAMP response (OR52cs S114A; odorant 9.18274e-6 M) was 9.728 and 8.57 and 11.8154, the cAMP response (OR52cs S114A; odorant 3.0303e-5 M) was 42.675 and 40.9596 and 54.3071 and the cAMP response (OR52cs S114A; odorant 0.0001 M) was 71.9561 and 66.6762 and 91.932. The cAMP response (OR52cs S114A; odorant 0.001 M) was 103.979 and 112.532 and 126.832, the EC50 (OR52cs H264A; Supplementary Fig. 13b) was 60 µM and the cAMP response (OR52cs H264A; odorant 9.18274e-6 M) was 4.615 and 4.081 and 4.27. The cAMP response (OR52cs H264A; odorant 3.0303e-5 M) was 14.0038 and 11.3214 and 12.3984, the cAMP response (OR52cs H264A; odorant 0.0001 M) was 28.5965 and 25.2729 and 26.8638 and the cAMP response (OR52cs H264A; odorant 0.001 M) was 40.8869 and 35.5267 and 36.771. The “downstream signaling (in words)” value (OR52cs ΔN(1–18)) was “loss of downstream signaling”, the “ΔBRET (OCA- minus vehicle-treated BRET signal)” value (OR52cs / Gαs) was 0.0184 and 0.01592 and 0.01247 and 0.01013 and 0.01218 and the “ΔBRET (OCA- minus vehicle-treated BRET signal)” value (OR52cs / Gαolf) was 0.01011 and 0.01399 and 0.007869 and 0.00957 and 0.01164.
